The results in this text go back to patent publication US20240239790A1, “7-Morpholino-1,6-Naphthyridin-5-yl Derivatives and Pharmaceutical Compositions Thereof Useful as DNA-PK Inhibitor” (adMare Therapeutics Society, priority 2021, published 2024).

Series [1] has as its target T1, DNA-PK phosphorylation at Serine 2056 (Homo sapiens, UniProt P78527).
T1 construct: FaDu cells were purchased from ATCC; host or cells: FaDu
The experiment in a line: Cellular Assay for Inhibition of DNA-PK Phosphorylation at Serine 2056 in FaDu cells (sandwich ELISA, neocarzinostatin). Format: cell-based. To be noted: pSer2056 DNA-PK, Table 3. A digest of the protocol: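 pSer2056 and total DNA-PK were measured by sandwich ELISA in BCA-normalised FaDu lysates. Cells had 1 h compound exposure (0.3% DMSO), then 2 h with 1 μg/mL final neocarzinostatin. IC50 was fitted (variable slope) to % inhibition scaled against NCS-stimulated and DMSO-only controls.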

Series [2] has as its system pH2AX induction in HCT116 ATM-/- multicellular tumour spheroids. The experiment in a line: Prodrug Radiation Sensitization in Multicellular Tumour Spheroids, inhibition of pH2AX induction following radiation. As to conditions: Homo sapiens, HCT-116, 20 Gy. Format: cell-based. The procedure, abridged:
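Endpoint: pH2AX (ser 139) or pDNA-PK (ser 2056) in cryosections fixed 1 or 2 h after 20 Gy, comparing oxygenated outer with hypoxic inner layers. Spheroids of ~0.5 mm (HCT116, FaDu; ATM-deficient cells used) held at 20% or 5% O2, 37 °C, stirred. Prodrug range 3.5 nM–10 μM.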

A further series deals with FaDu cell line. The experiment in a line: Prodrug Activation in Hypoxic Stirred Tumour Cell Suspensions. As to conditions: 10 μM, 4 hours.
Setting [3] is: 5% O2, inner layers, read-out: Prodrug 5% O2 Inner layers EC50.
The mark [4] stands for this setting: 5% O2, outer layers, read-out: Prodrug 5% O2 Outer layers EC50.
[5] abbreviates: 20% O2, outer layers, read-out: Prodrug 20% O2 Outer layers EC50.

Like-named read-outs stand apart in the source and are kept apart here.

`Cc1cc(C)nc(N[C@H]2CC[C@@H](Oc3nc(N4CCOCC4)cc4ncc(OC(C)c5cnc([N+](=O)[O-])n5C)cc34)CC2)n1` (stereo partly drawn) [LFA2082, 4,6-dimethyl-N-[4-[[3-[1-(3-methyl-2-nitro-imidazol-4-yl)ethoxy]-7-morpholino-1,6-naphthyridin-5-yl]oxy]cyclohexyl]pyrimidin-2-amine] registered an IC50 in series [1] of 10 to 30 µM. In addition, the concentration for a half-maximal effect (EC50) fell in the range of 0.01 to 0.5 µM in series [2] (setting [3]), 1 to 10 µM in series [2] (setting [4]) and 1 to 10 µM in series [2] (setting [5]). Also, the “Fraction of prodrug converted to active form, Hypoxic 0.2% O2” value (“Fraction … Hypoxic 0.2% O2” for short) in the series on FaDu cell line was “A (A is 0.15 to 1)”. Besides, the “Fraction of prodrug converted to active form, Oxic 5% O2” value (“Fraction … Oxic 5% O2” for short) with FaDu cell line is reported as “C (C is 0.02 to 0.05)”.
Consider `Cn1c(COc2cnc3cc(N4CCOCC4)nc(O[C@H]4CC[C@@H](Nc5ccccn5)CC4)c3c2)cnc1[N+](=O)[O-]` [LFA2083, N-[4-[[3-[(3-methyl-2-nitro-imidazol-4-yl)methoxy]-7-morpholino-1,6-naphthyridin-5-yl]oxy]cyclohexyl]pyridin-2-amine], for which, in series [1], the 50% inhibitory concentration (IC50) lay within 10 to 30 µM. The EC50 in series [2] (setting [3]) lay in the range of 0.01 to 0.5 µM; in series [2] (setting [4]), 1 to 10 µM; in series [2] (setting [5]) it was 1 to 10 µM. Also, in the series on FaDu cell line, the “Fraction … Hypoxic 0.2% O2” value is listed as “A (A is 0.15 to 1)”. In addition, in the series on FaDu cell line, the “Fraction … Oxic 5% O2” value is reported as “C (C is 0.02 to 0.05)”.
Compound `CC(Oc1cnc2cc(N3CCOCC3)nc(O[C@H]3CC[C@@H](Nc4ccccn4)CC3)c2c1)c1cnc([N+](=O)[O-])n1C` (stereo partly drawn) [LFA2084, N-[4-[[3-[1-(3-methyl-2-nitro-imidazol-4-yl)ethoxy]-7-morpholino-1,6-naphthyridin-5-yl]oxy]cyclohexyl]pyridin-2-amine] registered a half-inhibitory concentration (IC50) in series [1] of 10 to 30 µM. Moreover, the half-maximal effective concentration (EC50) in series [2] (setting [3]) lay within 0.01 to 0.5 µM; in series [2] (setting [4]) it was 1 to 10 µM; in series [2] (setting [5]), 10 to 100 µM. In addition, in the series with FaDu cell line, the “Fraction … Hypoxic 0.2% O2” value was “A (A is 0.15 to 1)”. In the series on FaDu cell line, the “Fraction … Oxic 5% O2” value was “C (C is 0.02 to 0.05)”.
In the case of `CC(Oc1cnc2cc(N3CCOCC3)nc(O[C@H]3CC[C@@H](Nc4ncc(CN(C)C)cn4)CC3)c2c1)c1cnc([N+](=O)[O-])n1C` (stereo partly drawn) [LFA2085, 5-[(dimethylamino)methyl]-N-[4-[[3-[1-(3-methyl-2-nitro-imidazol-4-yl)ethoxy]-7-morpholino-1,6-naphthyridin-5-yl]oxy]cyclohexyl]pyrimidin-2-amine], the half-maximal inhibitory concentration (IC50) in series [1] lay in the range of 1 to 10 µM. The 50% effective concentration (EC50) in series [2] (setting [3]), in series [2] (setting [4]) and in series [2] (setting [5]) was 1 to 10 µM in each case. Further, the “Fraction … Hypoxic 0.2% O2” value in the series on FaDu cell line is given as “B (B is 0.05 to 0.15)”. Further, the “Fraction … Oxic 5% O2” value in the series with FaDu cell line is on record as “D (D is 0 to 0.02)”.
In series [1], `CN(C)Cc1cnc(N[C@H]2CC[C@@H](Oc3nc(N4CCOCC4)cc4ncc(OCc5cnc([N+](=O)[O-])n5C)cc34)CC2)nc1` [LFA2086, 5-[(dimethylamino)methyl]-N-[4-[[3-[(3-methyl-2-nitro-imidazol-4-yl)methoxy]-7-morpholino-1,6-naphthyridin-5-yl]oxy]cyclohexyl]pyrimidin-2-amine] yielded an IC50 of 10 to 30 µM. For the same compound, the concentration giving a half-maximal response (EC50) in series [2] (setting [3]), in series [2] (setting [4]) and in series [2] (setting [5]) was 1 to 10 µM in each case. In the series on FaDu cell line, the “Fraction … Hypoxic 0.2% O2” value is given as “D (D is 0 to 0.02)”. For the same compound, the “Fraction … Oxic 5% O2” value in the series on FaDu cell line was “D (D is 0 to 0.02)”.
Consider `CC(Oc1cnc2cc(N3CCOCC3)nc(O[C@H]3CC[C@@H](Nc4ncc(OCCN(C)C)cn4)CC3)c2c1)c1cnc([N+](=O)[O-])n1C` (stereo partly drawn) [LFA2087, 5-[2-(dimethylamino)ethoxy]-N-[4-[[3-[1-(3-methyl-2-nitro-imidazol-4-yl)ethoxy]-7-morpholino-1,6-naphthyridin-5-yl]oxy]cyclohexyl]pyrimidin-2-amine], for which the 50% inhibitory concentration (IC50) in series [1] was in the range of 1 to 10 µM. Further, the EC50 in series [2] (setting [3]), in series [2] (setting [4]) and in series [2] (setting [5]) was 1 to 10 µM throughout. Besides, in the series on FaDu cell line, the “Fraction … Hypoxic 0.2% O2” value was “A (A is 0.15 to 1)”. Besides, the “Fraction … Oxic 5% O2” value in the series on FaDu cell line is recorded as “D (D is 0 to 0.02)”.
In the case of `CN(C)CCOc1cnc(N[C@H]2CC[C@@H](Oc3nc(N4CCOCC4)cc4ncc(OCc5cnc([N+](=O)[O-])n5C)cc34)CC2)nc1` [LFA2088, 5-[2-(dimethylamino)ethoxy]-N-[4-[[3-[(3-methyl-2-nitro-imidazol-4-yl)methoxy]-7-morpholino-1,6-naphthyridin-5-yl]oxy]cyclohexyl]pyrimidin-2-amine], the 50% inhibitory concentration (IC50) in series [1] fell in the range of 1 to 10 µM. The EC50 in series [2] (setting [3]), in series [2] (setting [4]) and in series [2] (setting [5]) was 1 to 10 µM each time. In addition, the “Fraction … Hypoxic 0.2% O2” value in the series with FaDu cell line was “B (B is 0.05 to 0.15)”. Besides, the “Fraction … Oxic 5% O2” value in the series on FaDu cell line is recorded as “D (D is 0 to 0.02)”.
`CC(Oc1cnc2cc(N3CCOCC3)nc(OC3CCC(Nc4ncc(OCCN5CCN(C)CC5)cn4)CC3)c2c1)c1cnn(C)c1[N+](=O)[O-]` (stereo not drawn) [LFA2089, N-[4-[[3-[1-(1-methyl-5-nitro-pyrazol-4-yl)ethoxy]-7-morpholino-1,6-naphthyridin-5-yl]oxy]cyclohexyl]-5-[2-(4-methylpiperazin-1-yl)ethoxy]pyrimidin-2-amine] came in with an IC50 in series [1] of 1 to 10 µM. For the same compound, the EC50 in series [2] (setting [3]), in series [2] (setting [4]) and in series [2] (setting [5]) was 1 to 10 µM each time. Further, the “Fraction … Hypoxic 0.2% O2” value in the series with FaDu cell line is reported as “B (B is 0.05 to 0.15)”. The “Fraction … Oxic 5% O2” value with FaDu cell line is listed as “D (D is 0 to 0.02)”.
In series [1], `CC(NS(=O)(=O)c1cnc2cc(N3CCOCC3)nc(O[C@H]3CC[C@@H](Nc4ncc(OCCN5CCN(C)CC5)cn4)CC3)c2c1)c1cnc([N+](=O)[O-])n1C` (stereo partly drawn) [LFA2090, N-[1-(3-methyl-2-nitro-imidazol-4-yl)ethyl]-5-[4-[[5-[2-(4-methylpiperazin-1-yl)ethoxy]pyrimidin-2-yl]amino]cyclohexoxy]-7-morpholino-1,6-naphthyridine-3-sulfonamide] yielded an IC50 of 10 to 30 µM. Moreover, the EC50 in series [2] (setting [3]), in series [2] (setting [4]) and in series [2] (setting [5]) was 10 to 100 µM each time. Further, in the series on FaDu cell line, the “Fraction … Hypoxic 0.2% O2” value was “D (D is 0 to 0.02)”. The “Fraction … Oxic 5% O2” value with FaDu cell line is “D (D is 0 to 0.02)”.
The compound `Cn1c(CNS(=O)(=O)c2cnc3cc(N4CCOCC4)nc(O[C@H]4CC[C@@H](Nc5ncc(C(F)(F)F)cn5)CC4)c3c2)cnc1[N+](=O)[O-]` [LFA2091, N-[(3-methyl-2-nitro-imidazol-4-yl)methyl]-7-morpholino-5-[4-[[5-(trifluoromethyl)pyrimidin-2-yl]amino]cyclohexoxy]-1,6-naphthyridine-3-sulfonamide] showed an IC50 in series [1] of 10 to 30 µM. Moreover, the EC50 in series [2] (setting [3]), in series [2] (setting [4]) and in series [2] (setting [5]) was 10 to 100 µM each time. In addition, in the series with FaDu cell line, the “Fraction … Hypoxic 0.2% O2” value was “D (D is 0 to 0.02)”. The “Fraction … Oxic 5% O2” value in the series with FaDu cell line was “D (D is 0 to 0.02)”.
`CC(NS(=O)(=O)c1cnc2cc(N3CCOCC3)nc(O[C@H]3CC[C@@H](Nc4ncc(C(F)(F)F)cn4)CC3)c2c1)c1cnc([N+](=O)[O-])n1C` (stereo partly drawn) [LFA2092, N-[1-(3-methyl-2-nitro-imidazol-4-yl)ethyl]-7-morpholino-5-[4-[[5-(trifluoromethyl)pyrimidin-2-yl]amino]cyclohexoxy]-1,6-naphthyridine-3-sulfonamide]: in series [1], the half-maximal inhibitory concentration (IC50) was 10 to 30 µM. In addition, the EC50 fell in the range of 10 to 100 µM in series [2] (setting [3]), 10 to 100 µM in series [2] (setting [4]) and 1 to 10 µM in series [2] (setting [5]). In addition, the “Fraction … Hypoxic 0.2% O2” value in the series on FaDu cell line is reported as “D (D is 0 to 0.02)”. For the same compound, in the series on FaDu cell line, the “Fraction … Oxic 5% O2” value is given as “D (D is 0 to 0.02)”.
`Cc1cc(C#N)nc(N[C@H]2CC[C@@H](Oc3nc(N4CCOCC4)cc4ncc(OCc5cnc([N+](=O)[O-])n5C)cc34)CC2)n1` [LFA2093, 6-methyl-2-[[4-[[3-[(3-methyl-2-nitro-imidazol-4-yl)methoxy]-7-morpholino-1,6-naphthyridin-5-yl]oxy]cyclohexyl]amino]pyrimidine-4-carbonitrile] returned an IC50 in series [1] of 10 to 30 µM. Moreover, the concentration for a half-maximal effect (EC50) in series [2] (setting [3]), in series [2] (setting [4]) and in series [2] (setting [5]) was 1 to 10 µM in each case. In the series on FaDu cell line, the “Fraction … Hypoxic 0.2% O2” value is on record as “B (B is 0.05 to 0.15)”. For the same compound, the “Fraction … Oxic 5% O2” value in the series on FaDu cell line is on record as “B (B is 0.05 to 0.15)”.
For the compound `Cc1cc(C#N)nc(N[C@H]2CC[C@@H](Oc3nc(N4CCOCC4)cc4ncc(OC(C)c5cnc([N+](=O)[O-])n5C)cc34)CC2)n1` (stereo partly drawn) [LFA2094, 6-methyl-2-[[4-[[3-[1-(3-methyl-2-nitro-imidazol-4-yl)ethoxy]-7-morpholino-1,6-naphthyridin-5-yl]oxy]cyclohexyl]amino]pyrimidine-4-carbonitrile], the IC50 in series [1] lay within 10 to 30 µM. The EC50 was 0.5 to 1 µM in series [2] (setting [3]), 1 to 10 µM in series [2] (setting [4]) and 10 to 100 µM in series [2] (setting [5]). Besides, the “Fraction … Hypoxic 0.2% O2” value in the series on FaDu cell line is reported as “B (B is 0.05 to 0.15)”. The “Fraction … Oxic 5% O2” value with FaDu cell line is on record as “B (B is 0.05 to 0.15)”.
